What was measured:
C57BL/KsJ db/db mouse = test: Antidiabetic and serum-lipid-lowering activity in the db/db mouse (Experiments I and II); settings: Experiment II; for Glucose: blood
Description: Plasma levels of glucose, insulin, triglycerides, cholesterol, free fatty acids and urea were checked for a well-matched distribution of mice in the treatment groups.
At the start of treatment the body weights of the mice were checked and arrangements were made for monitoring water and feed consumption.
In the course of the experiment, serum glucose levels, oral glucose tolerance test (OGTT) findings, a number of lipid status parameters and weight gain were monitored.

PPARγ = molecular target: T1, PPARγ (Mus musculus, UniProt P37238); test: Transactivation assay mediated by PPARγ in NIH-3T3 cells (CAT reporter); format: cell-based
T1 construct: expressed in transfected cells; host or cells: NIH-3T3 (mouse embryonal fibroblasts)
T1 sequence (P37238 1-475 isoform P37238-2): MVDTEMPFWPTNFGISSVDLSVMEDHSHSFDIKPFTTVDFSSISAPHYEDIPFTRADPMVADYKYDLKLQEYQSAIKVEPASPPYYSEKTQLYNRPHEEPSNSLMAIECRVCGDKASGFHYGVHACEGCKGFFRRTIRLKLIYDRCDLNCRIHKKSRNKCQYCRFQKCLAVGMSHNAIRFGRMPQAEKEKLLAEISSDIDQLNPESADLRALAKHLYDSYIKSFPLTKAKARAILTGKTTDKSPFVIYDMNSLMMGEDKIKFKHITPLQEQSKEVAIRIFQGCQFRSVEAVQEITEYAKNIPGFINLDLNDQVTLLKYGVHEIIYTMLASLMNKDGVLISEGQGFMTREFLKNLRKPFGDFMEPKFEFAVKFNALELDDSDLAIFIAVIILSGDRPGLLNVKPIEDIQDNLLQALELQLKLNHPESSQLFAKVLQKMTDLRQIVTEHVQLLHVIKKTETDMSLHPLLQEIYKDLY
Description: A transactivation assay specific for PPARγ thus requires the simultaneous presence of the following in the preselected cell line: • a) a sufficient amount of PPARγ; • b) a sufficient amount of the 9 cis-retinoic acid receptor (RXR); • c) a chimeric plasmid containing the reporter gene controlled by a PPRE, located upstream of a viral heterologous promoter. In our case the reporter gene is chloramphenicol-acetyl transferase (CAT).
In the transactivation assay used, the preselected cells are transfected with the expression vector pSG5 Stop-mPPARg1 which allows the synthesis of the PPARγ receptor by the transfected cell. Simultaneously, a plasmid reporter (pBLCAT2-PPRE) is transfected which contains a peroxisome proliferator response element (PPRE) isolated by the gene promoter for acyl-CoA oxidase, upstream of the heterologous promoter of viral thymidine kinase (TK) fused with the reporter gene CAT. Since the endogenous cell levels of the RXR receptor are sufficiently high, it is not necessary to transfect an expression vector specific for RXR as well. […] Therefore, any increase in CAT levels will be the result of increased gene transcription dependent upon the dimerisation of PPARγ with RXR and upon the heterodimer bond formed with the peroxisome proliferator response element. Together with the expression vector and the reporter vector the cells are also transfected with the plasmid pCH110 which provides the internal control for the efficiency of transfection and the normalisation of the results
A cell line of mouse embryonal fibroblasts (NIH-3T3) was used [Hogan J. C. et al., Biochem Biophys Res Commun. 287 (2), 484-92 (2001)]. The cells were transfected with the reporter plasmid, the expression plasmid coding for the PPARγ receptor and the control vector pCH110. The cells were exposed to increasing concentrations of the study compounds and CAT activity was evaluated. Untreated cells were used as controls.
Mouse embryonal fibroblasts (NIH-3T3) were cultured according to the usual cell culture techniques, at 37° C. in a 5% v/v carbon dioxide atmosphere using as the growth medium DMEM (Dulbecco's modified Eagle's medium) modified with 3.7 g/l of sodium bicarbonate, 4 mM L-glutamine, 4.5 g/l of glucose, 1 mM sodium pyruvate and 10% v/v of calf serum, in the presence of streptomycin 100 μg/ml and penicillin 100 U/ml final.
The cells were co-transfected using the transfection reagent FuGENE6 (Roche), already described in the previous example. Twenty-four hours prior to transfection the cells were plated at a density of 8.0×10^4 cells/well in 12-well plates and maintained at 37° C. in a 5% v/v CO2 atmosphere. The culture medium, devoid of serum, was replaced 2 hours before transfection, and then the cells were treated with the transfection reagent FuGENE6, as described in the previous example. After 5 hours, the transfection medium was replaced by 1 ml of culture medium complete with serum and antibiotics in the presence or absence of the molecules to be tested at 3 different concentrations (2, 20 and 100 μM). Rosiglitazone, a known ligand of PPARγ, was used as the positive reference compound.
The cell protein extracts were prepared and the CAT activity assay was conducted exactly as described in the previous example.
As an internal control for the normalisation of the CAT activity in relation to the transfection efficiency, β-galactosidase activity coded for by the corresponding gene in the co-transfected plasmid pCH110 was used.
β-galatosidase activity was measured exactly as described in the previous example.
For the normalisation of the CAT assay results in relation to […] activity the formula described in the previous example was used.

[1] = after 12 days' treatment, postabsorption, 7.5 hours after last treatment, mean ± S.E.

CC(C)(Sc1cccc(OCCc2ccc(Cl)cc2)c1)C(=O)O [Example 2, 2-[3-[2-(4-chlorophenyl)ethoxy]phenylthio]-2-methylpropanoic acid]
Variation % (glucose) vs control (C57BL/KsJ db/db mouse; after 9 days' treatment, postabsorption, 8 hours after last treatment): −66% | Variation % (AUC glucose at OGTT) vs control (C57BL/KsJ db/db mouse; after 11 days' treatment, OGTT glucose 3 g/kg): −43% | AUC glucose at OGTT (C57BL/KsJ db/db mouse; after 11 days' treatment, OGTT glucose 3 g/kg, fasting 18 hours, 5 hours after last treatment, mean ± S.E.): 24517 ± 2261 a.u. | Variation % (glucose) vs control (C57BL/KsJ db/db mouse; after 11 days' treatment, fasting 18 hours, 5 hours after last treatment): −48% | Variation % (HDL-cholesterol) vs control (C57BL/KsJ db/db mouse; after 12 days' treatment): +19% | Variation % (final b.w.) vs control (C57BL/KsJ db/db mouse; after 12 days' treatment): +5% | Variation % (triglycerides) vs control (C57BL/KsJ db/db mouse; after 12 days' treatment): −44% | Glucose (plasma) (C57BL/KsJ db/db mouse; after 12 days' treatment, postabsorption (fasting 9 a.m. to 4.30 p.m.), 7.5 hours after last treatment, mean ± S.E.): 263 ± 30 mg/dL | Variation % (plasma glucose) vs control (C57BL/KsJ db/db mouse; after 12 days' treatment, postabsorption, 7.5 hours after last treatment): −54% | HDL-choles. (plasma) (C57BL/KsJ db/db mouse; [1]): 102.5 ± 4.7Δ mg/dl | Triglycerides (plasma) (C57BL/KsJ db/db mouse; [1]): 48.6 ± 2.5 mg/dL | Glucose (C57BL/KsJ db/db mouse; after 9 days' treatment, postabsorption (fasting 9 a.m. to 5 p.m.), 8 hours after last treatment, mean ± S.E.): 155 ± 21 mg/dL | Glucose (C57BL/KsJ db/db mouse; after 11 days' treatment, fasting 18 hours, 5 hours after last treatment, mean ± S.E.): 128 ± 8 mg/dL | Final b.w. (C57BL/KsJ db/db mouse; final body weight after 12 days' treatment, postabsorption condition, mean ± S.E.): 39.4 ± 0.9 g | Variation % (initial b.w.) vs control (C57BL/KsJ db/db mouse; initial body weight): −3% | Initial b.w. (C57BL/KsJ db/db mouse; initial body weight, postabsorption condition, mean ± S.E.): 37.8 ± 0.5 g | Activation of the gene-reporter CAT as a percentage of the reference compound (rosiglitazone 2 μM = 100%) (PPARγ; 2 μM): 28.6% | Activation of the gene-reporter CAT as a percentage of the reference compound (rosiglitazone 2 μM = 100%) (PPARγ; 20 μM): 61.2% | Activation of the gene-reporter CAT as a percentage of the reference compound (rosiglitazone 2 μM = 100%) (PPARγ; 100 μM): 114.3%
